Reference: ChEMBL document CHEMBL3039007, “Structure-based identification of OATP1B1/3 inhibitors” (Mol Pharmacol, 2013)

How the values were obtained:
[1] = target: T1, Solute carrier organic anion transporter family member 1B1 (Homo sapiens, UniProt Q9Y6L6); conditions: chinese hamster, cho, 10 µM
T1 sequence (Q9Y6L6 whole entry): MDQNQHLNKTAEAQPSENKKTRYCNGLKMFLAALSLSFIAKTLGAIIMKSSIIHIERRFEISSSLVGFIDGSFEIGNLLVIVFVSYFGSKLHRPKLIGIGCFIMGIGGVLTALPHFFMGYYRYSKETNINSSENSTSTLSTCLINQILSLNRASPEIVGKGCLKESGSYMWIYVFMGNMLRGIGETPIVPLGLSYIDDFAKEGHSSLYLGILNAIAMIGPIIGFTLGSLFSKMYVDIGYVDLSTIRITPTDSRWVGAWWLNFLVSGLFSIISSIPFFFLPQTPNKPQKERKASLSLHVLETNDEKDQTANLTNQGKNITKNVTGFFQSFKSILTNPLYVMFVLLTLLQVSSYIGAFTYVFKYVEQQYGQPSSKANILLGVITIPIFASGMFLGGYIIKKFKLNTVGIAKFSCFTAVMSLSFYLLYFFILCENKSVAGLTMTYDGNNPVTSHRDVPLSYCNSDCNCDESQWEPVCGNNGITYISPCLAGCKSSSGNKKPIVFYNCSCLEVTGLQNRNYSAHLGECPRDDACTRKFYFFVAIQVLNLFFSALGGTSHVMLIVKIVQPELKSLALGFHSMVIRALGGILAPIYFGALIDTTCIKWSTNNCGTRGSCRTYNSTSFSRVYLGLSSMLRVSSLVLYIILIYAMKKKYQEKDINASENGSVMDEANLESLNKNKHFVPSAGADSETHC

[2] = target: T2, Solute carrier organic anion transporter family member 1B3 (Homo sapiens, UniProt Q9NPD5); conditions: chinese hamster, cho, 10 µM
T2 sequence (Q9NPD5 whole entry): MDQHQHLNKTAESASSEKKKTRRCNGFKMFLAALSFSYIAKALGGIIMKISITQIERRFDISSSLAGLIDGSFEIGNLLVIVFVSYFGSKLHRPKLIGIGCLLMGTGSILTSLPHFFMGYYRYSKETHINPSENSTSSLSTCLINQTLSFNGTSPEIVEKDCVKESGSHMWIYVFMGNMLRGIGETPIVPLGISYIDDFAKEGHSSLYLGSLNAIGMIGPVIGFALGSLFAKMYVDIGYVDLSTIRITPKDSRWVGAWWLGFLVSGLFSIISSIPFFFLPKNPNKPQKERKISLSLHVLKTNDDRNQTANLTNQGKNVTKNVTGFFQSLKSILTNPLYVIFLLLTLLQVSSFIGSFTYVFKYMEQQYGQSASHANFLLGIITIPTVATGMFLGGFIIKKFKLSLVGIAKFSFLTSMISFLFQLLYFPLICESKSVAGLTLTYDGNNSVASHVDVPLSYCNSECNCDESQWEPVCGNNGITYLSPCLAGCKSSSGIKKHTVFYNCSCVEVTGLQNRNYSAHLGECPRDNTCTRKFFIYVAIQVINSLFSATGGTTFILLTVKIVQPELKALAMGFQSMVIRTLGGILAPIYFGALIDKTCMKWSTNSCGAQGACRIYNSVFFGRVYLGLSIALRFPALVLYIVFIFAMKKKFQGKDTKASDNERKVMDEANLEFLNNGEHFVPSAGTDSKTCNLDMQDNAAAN

residual activity [1]	residual activity [2]	SMILES
84.34%	99.18%	CCN(CC)CCCC(C)Nc1ccnc2cc(Cl)ccc12.O=P(O)(O)O.O=P(O)(O)O (stereo not drawn) [CHLOROQUINE PHOSPHATE]
91.3%	92.54%	COc1ccc(C(Cl)=C(c2ccc(OC)cc2)c2ccc(OC)cc2)cc1 [CHLOROTRIANISENE]
43.47%	62.22%	Oc1c(Cl)cc(Cl)c2cccnc12 [CHLOROXINE]
116.8%	121.1%	Cc1cc(O)cc(C)c1Cl [CHLOROXYLENOL]
99.49%	97.66%	CN(C)CCCN1c2ccccc2Sc2ccc(Cl)cc21 [CHLORPROMAZINE]
102%	102.2%	CCCNC(=O)NS(=O)(=O)c1ccc(Cl)cc1 [CHLORPROPAMIDE]
98.6%	88.49%	Cc1ccc2c(Cl)cc(Cl)c(O)c2n1 [CHLORQUINALDOL]
133.6%	93%	O=C(O)c1cc(=O)c2ccccc2o1 [CHROMOCARB]
112.1%	103.1%	COc1cc(OC)c2c(=O)cc(-c3ccccc3)oc2c1 [CHRYSIN DIMETHYL ETHER]
115.4%	129.1%	O=c1cc(-c2ccccc2)oc2cc(O)cc(O)c12 [CHRYSIN]
128.6%	93.35%	Cc1cc(O)c2c(c1)C(=O)c1cccc(O)c1C2=O [CHRYSOPHANOL]
72.87%	92.34%	Oc1cc(O)c2c(c1)O[C@H](c1ccc(O)c(O)c1)[C@@H](O)C2 [CIANIDANOL]
207.2%	98.73%	O=C1CCc2cc(OCCCCc3nnnn3C3CCCCC3)ccc2N1 [CILOSTAZOL]
81.95%	105.5%	COc1cc(OC)c2ccc(=O)oc2c1 [CITROPTEN]
114.7%	127.7%	CCOC(=O)C(C)(C)Oc1ccc(Cl)cc1 [CLOFIBRATE]
111.2%	99.14%	CC(C)(Oc1ccc(Cl)cc1)C(=O)O [CLOFIBRIC ACID]

More lines, now with the values behind:

SMILES	residual activity [1]	residual activity [2]
CC(=O)Oc1ccc(Cl)c2cccnc12 [CHLOROACETOXYQUINOLINE]	90.22%	92.5%
Cc1cc(O)ccc1Cl [CHLOROCRESOL]	119.6%	91.23%
O=C(/C=C/c1ccc(O)c(O)c1)O[C@@H]1C[C@](O)(C(=O)O)C[C@@H](O)[C@H]1O [CHLOROGENIC ACID]	105.9%	103.1%
Clc1ccc(C(c2ccc(Cl)cc2)C(Cl)(Cl)Cl)cc1 [CHLOROPHENOTHANE]	124.5%	116.2%
N#Cc1c(Cl)c(Cl)c(Cl)c(C#N)c1Cl [CHLOROTHALONIL]	92.97%	81.58%
CC(C)OC(=O)Nc1cccc(Cl)c1 [CHLORPROPHAM]	104.8%	107%
CN(C)CC/C=C1/c2ccccc2Sc2ccc(Cl)cc21.Cl [CHLORPROTHIXENE HYDROCHLORIDE]	85.65%	101.8%
CCOP(=S)(OCC)Oc1nc(Cl)c(Cl)cc1Cl [CHLORPYRIFOS]	140%	127.1%
CN(C)[C@@H]1C(O)=C(C(N)=O)C(=O)[C@@]2(O)C(O)=C3C(=O)c4c(O)ccc(Cl)c4[C@@](C)(O)[C@H]3C[C@@H]12.Cl [CHLORTETRACYCLINE HYDROCHLORIDE]	128.8%	95.91%
NS(=O)(=O)c1cc(C2(O)NC(=O)c3ccccc32)ccc1Cl (stereo not drawn) [CHLORTHALIDONE]	62.41%	67.04%
CC(C)CCC[C@@H](C)[C@H]1CC[C@H]2[C@@H]3CC=C4CC(=O)CC[C@]4(C)[C@H]3CC[C@]12C [CHOLEST-5-EN-3-ONE]	119.6796%	103.5%
CC(C)CCC[C@@H](C)[C@H]1CC[C@H]2[C@@H]3CC[C@H]4CC(=O)CC[C@]4(C)[C@H]3CC[C@]12C [CHOLESTAN-3-ONE]	74.43%	73.06%
CC(C)CCC[C@@H](C)[C@H]1CC[C@H]2[C@@H]3C[C@@H](O)[C@@]4(O)C[C@@H](O)CC[C@]4(C)[C@H]3CC[C@]12C [CHOLESTAN-3beta,5alpha,6beta-TRIOL]	90.42%	93.54%
CC(C)CCC[C@@H](C)[C@H]1CC[C@H]2[C@@H]3CC=C4C[C@@H](O)CC[C@]4(C)[C@H]3CC[C@]12C [CHOLESTEROL]	95.51%	100%
C[C@H](CCC(=O)O)[C@H]1CC[C@H]2[C@@H]3[C@H](O)C[C@@H]4C[C@H](O)CC[C@]4(C)[C@H]3C[C@H](O)[C@]12C [CHOLIC ACID]	99.52%	75.03%
C[N+](C)(C)CCO.[Cl-] [CHOLINE CHLORIDE]	93.68%	113.2%
CCOC(=O)C1C(C=C(C)C)C1(C)C (stereo not drawn) [CHRYSANTHEMIC ACID, ETHYL ESTER]	83.17%	89.36%

SMILES	residual activity [1]	residual activity [2]
CC(C)=CC1C(C(=O)O)C1(C)C (stereo not drawn) [CHRYSANTHEMIC ACID]	83.79%	97.37%
CC(C)=CC1C(CO)C1(C)C (stereo not drawn) [CHRYSANTHEMYL ALCOHOL]	106.8%	105.2%
Cc1cc(C2CCCCC2)n(O)c(=O)c1.NCCO [CICLOPIROX OLAMINE]	129.1%	106%
CN/C(=N/CCSCc1nc[nH]c1C)NC#N [CIMETIDINE]	120.2%	96.42%
C=C[C@H]1CN2CC[C@H]1C[C@H]2[C@H](O)c1ccnc2ccccc12 [CINCHONIDINE]	86.58%	111.1%
C=C[C@H]1C[N@@]2CC[C@H]1C[C@@H]2[C@@H](O)c1ccnc2ccccc12 [CINCHONINE]	122.3%	105.3%
C(=C\c1ccccc1)/CN1CCN(C(c2ccccc2)c2ccccc2)CC1 [CINNARIZINE]	185.1%	102.7%
O=C(O)c1cn(C2CC2)c2cc(N3CCNCC3)c(F)cc2c1=O [CIPROFLOXACIN]	105.3%	112.4%
C[N+](C)(C)CCOP(=O)(O)OP(=O)([O-])OC[C@H]1O[C@@H](n2ccc(N)nc2=O)[C@H](O)[C@@H]1O [CITICOLINE]	81.06%	69.94%
CC(=O)NC1CCSC1=O (stereo not drawn) [CITIOLONE]	110.6%	92.74%
CC1=C2C(=CO[C@H](C)[C@H]2C)C(O)=C(C(=O)O)C1=O [CITRININ]	34.39%	67.29%
COc1cc(N)c(Cl)cc1C(=O)NC1CCN(Cc2ccccc2)CC1.O=C(O)/C=C\C(=O)O [CLEBOPRIDE MALEATE]	84.15%	124.4%
CC(C)(C)NCC(O)c1cc(Cl)c(N)c(Cl)c1.Cl (stereo not drawn) [CLENBUTEROL HYDROCHLORIDE]	78.76%	99.43%
C[N+]12CCC(CC1)C(OC(=O)C(O)(c1ccccc1)c1ccccc1)C2.[Br-] (stereo not drawn) [CLIDINIUM BROMIDE]	125.2%	92.46%
CCC[C@@H]1C[C@@H](C(=O)N[C@@H]([C@H]2O[C@H](SC)[C@H](O)[C@@H](O)[C@H]2O)[C@H](C)Cl)N(C)C1.Cl [CLINDAMYCIN HYDROCHLORIDE]	69.97%	115.2%
CCC(=O)O[C@]1(C(=O)CCl)[C@@H](C)C[C@H]2[C@@H]3CCC4=CC(=O)C=C[C@]4(C)[C@@]3(F)[C@@H](O)C[C@@]21C [CLOBETASOL PROPIONATE]	20.25%	21.34%
